The assay has as its target T1, CB1-Receptor (Homo sapiens, UniProt P21554).
T1 construct: purchased Receptor Biology, Inc
The assay can be described thus: In-vitro determination of affinity to CB1 receptor (radioligand [3H]-CP55940 binding). The settings on record: compound at 10^-6 M, transfected human CB1 receptors. The method, then:
The in-vitro determination of the affinity of the inventive substituted pyrazoline compounds to CB1/CB2-receptors is carried out as described in the publication of Ruth A. Ross, Heather C. Brockie et al., "Agonist-inverse agonist characterization at CB1 and CB2 cannabinoid receptors of L-759633, L759656 and AM630", British Journal of Pharmacology, 126, 665-672, (1999), whereby the transfected human CB1 and CB2 receptors of Receptor Biology, Inc. are used. The radioligand used for both receptors is [^3H]-CP55940. The respective parts of the description are hereby incorporated by reference and forms part of the present disclosure.
The affinity of the inventive substituted pyrazoline compounds to CB1/CB2 receptors was determined as described above.
T1 sequence (P21554 whole entry): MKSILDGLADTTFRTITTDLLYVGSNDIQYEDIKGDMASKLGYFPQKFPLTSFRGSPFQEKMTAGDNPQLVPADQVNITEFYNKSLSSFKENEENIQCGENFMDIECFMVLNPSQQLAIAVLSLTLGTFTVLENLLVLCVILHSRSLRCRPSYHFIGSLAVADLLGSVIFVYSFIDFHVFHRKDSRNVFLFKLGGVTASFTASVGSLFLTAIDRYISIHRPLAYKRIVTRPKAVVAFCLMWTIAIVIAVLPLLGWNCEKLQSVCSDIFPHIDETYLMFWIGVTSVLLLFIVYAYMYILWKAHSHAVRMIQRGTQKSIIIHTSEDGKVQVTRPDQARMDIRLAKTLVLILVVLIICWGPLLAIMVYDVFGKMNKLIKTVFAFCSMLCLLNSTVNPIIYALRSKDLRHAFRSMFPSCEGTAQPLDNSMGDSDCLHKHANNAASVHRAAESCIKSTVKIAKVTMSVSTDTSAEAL
The term inhibition denotes the percentage by which the read-out fell short of the control. For `CCCCCn1nc(-c2ccccc2)c(-c2ccc(Cl)cc2)n1` [Compound 10a, 4-(p-Chlorophenyl)-2-pentyl-5-phenyl-2H-[1,2,3]triazole], the inhibition at 1 µM was 22.8%.

`CCCCCn1nnc(-c2ccccc2)c1-c1ccc(Cl)cc1` [Compound 10c, 5-(p-Chlorophenyl)-1-pentyl-4-phenyl-1H-[1,2,3]triazole] showed an inhibition at 1 µM of 21.1%.

For `CCCCCn1nc(-c2ccc(C)cc2)c(-c2ccc(Cl)cc2Cl)n1` [Compound 11a, 4-(2,4-Dichlorophenyl)-2-pentyl-5-p-tolyl-2H-[1,2,3]triazole], the inhibition at 1 µM was 29.8%.

The compound `Clc1ccc(-c2nn(Cc3ccc(Br)cc3)nc2-c2ccccc2)cc1` [Compound 13a, 2-(p-Bromobenzyl)-4-(p-chlorophenyl)-5-phenyl-2H-[1,2,3]triazole] gave an inhibition at 1 µM of 45.6%.

Take `Clc1ccc(-c2nnn(Cc3ccccc3)c2-c2ccccc2)cc1` [Compound 14b, 1-Benzyl-4-(p-chlorophenyl)-5-phenyl-1H-[1,2,3]triazole]: the inhibition at 1 µM amounted to 24.6%.

The compound `Fc1cc(Br)ccc1-c1cnn(Cc2ccccc2)n1` [Compound 15a, 2-Benzyl-4-(4-bromo-2-fluorophenyl)-2H-[1,2,3]triazole] had an inhibition at 1 µM of 26.6%.

In the case of `Clc1ccc(-c2nn(C3C4CC5CC(C4)CC3C5)nc2-c2ccccc2)cc1` (stereo not shown) [Compound 19a, 2-Adamantyl-4-(p-chlorophenyl)-5-phenyl-2H-[1,2,3]triazole], the inhibition at 1 µM came to 23.1%.

Source of the values: patent EP1921072A1, “1,2,3-Triazole derivatives as cannabinoid-receptor modulators” (Laboratorios del Dr. Esteve S.A., priority 2006, dated 2008).
